pIC50: −log10 of the molar value.
Legend:
[1] = molecular target: T1, recombinant human baculovirus-expressed GST-tagged FASN (Homo sapiens, UniProt P49327); assay: FASN enzyme activity assay: fluorescence-based detection of CoA with CPM; format: biochemical; conditions: 5 nM FASN, 150 μM NADPH, 10 μM acetyl-CoA, 25 μM malonyl-CoA, 90 minutes incubation
T1 construct: GST; host or cells: baculovirus expression system (insect cells implied)
Summary of the method: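 IC50 values were fitted (variable-slope sigmoid) to percent inhibition from CPM fluorescence (390/530 nm) reporting free CoA after a 30 min labelling step. The reaction ran 90 min after malonyl-CoA (25 μM) addition, with 10 μM acetyl-CoA, 150 μM NADPH, 5 nM recombinant GST-FASN, 50 mM HEPES pH 7.5 and 0.5% DMSO.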

T1 sequence (P49327 whole entry): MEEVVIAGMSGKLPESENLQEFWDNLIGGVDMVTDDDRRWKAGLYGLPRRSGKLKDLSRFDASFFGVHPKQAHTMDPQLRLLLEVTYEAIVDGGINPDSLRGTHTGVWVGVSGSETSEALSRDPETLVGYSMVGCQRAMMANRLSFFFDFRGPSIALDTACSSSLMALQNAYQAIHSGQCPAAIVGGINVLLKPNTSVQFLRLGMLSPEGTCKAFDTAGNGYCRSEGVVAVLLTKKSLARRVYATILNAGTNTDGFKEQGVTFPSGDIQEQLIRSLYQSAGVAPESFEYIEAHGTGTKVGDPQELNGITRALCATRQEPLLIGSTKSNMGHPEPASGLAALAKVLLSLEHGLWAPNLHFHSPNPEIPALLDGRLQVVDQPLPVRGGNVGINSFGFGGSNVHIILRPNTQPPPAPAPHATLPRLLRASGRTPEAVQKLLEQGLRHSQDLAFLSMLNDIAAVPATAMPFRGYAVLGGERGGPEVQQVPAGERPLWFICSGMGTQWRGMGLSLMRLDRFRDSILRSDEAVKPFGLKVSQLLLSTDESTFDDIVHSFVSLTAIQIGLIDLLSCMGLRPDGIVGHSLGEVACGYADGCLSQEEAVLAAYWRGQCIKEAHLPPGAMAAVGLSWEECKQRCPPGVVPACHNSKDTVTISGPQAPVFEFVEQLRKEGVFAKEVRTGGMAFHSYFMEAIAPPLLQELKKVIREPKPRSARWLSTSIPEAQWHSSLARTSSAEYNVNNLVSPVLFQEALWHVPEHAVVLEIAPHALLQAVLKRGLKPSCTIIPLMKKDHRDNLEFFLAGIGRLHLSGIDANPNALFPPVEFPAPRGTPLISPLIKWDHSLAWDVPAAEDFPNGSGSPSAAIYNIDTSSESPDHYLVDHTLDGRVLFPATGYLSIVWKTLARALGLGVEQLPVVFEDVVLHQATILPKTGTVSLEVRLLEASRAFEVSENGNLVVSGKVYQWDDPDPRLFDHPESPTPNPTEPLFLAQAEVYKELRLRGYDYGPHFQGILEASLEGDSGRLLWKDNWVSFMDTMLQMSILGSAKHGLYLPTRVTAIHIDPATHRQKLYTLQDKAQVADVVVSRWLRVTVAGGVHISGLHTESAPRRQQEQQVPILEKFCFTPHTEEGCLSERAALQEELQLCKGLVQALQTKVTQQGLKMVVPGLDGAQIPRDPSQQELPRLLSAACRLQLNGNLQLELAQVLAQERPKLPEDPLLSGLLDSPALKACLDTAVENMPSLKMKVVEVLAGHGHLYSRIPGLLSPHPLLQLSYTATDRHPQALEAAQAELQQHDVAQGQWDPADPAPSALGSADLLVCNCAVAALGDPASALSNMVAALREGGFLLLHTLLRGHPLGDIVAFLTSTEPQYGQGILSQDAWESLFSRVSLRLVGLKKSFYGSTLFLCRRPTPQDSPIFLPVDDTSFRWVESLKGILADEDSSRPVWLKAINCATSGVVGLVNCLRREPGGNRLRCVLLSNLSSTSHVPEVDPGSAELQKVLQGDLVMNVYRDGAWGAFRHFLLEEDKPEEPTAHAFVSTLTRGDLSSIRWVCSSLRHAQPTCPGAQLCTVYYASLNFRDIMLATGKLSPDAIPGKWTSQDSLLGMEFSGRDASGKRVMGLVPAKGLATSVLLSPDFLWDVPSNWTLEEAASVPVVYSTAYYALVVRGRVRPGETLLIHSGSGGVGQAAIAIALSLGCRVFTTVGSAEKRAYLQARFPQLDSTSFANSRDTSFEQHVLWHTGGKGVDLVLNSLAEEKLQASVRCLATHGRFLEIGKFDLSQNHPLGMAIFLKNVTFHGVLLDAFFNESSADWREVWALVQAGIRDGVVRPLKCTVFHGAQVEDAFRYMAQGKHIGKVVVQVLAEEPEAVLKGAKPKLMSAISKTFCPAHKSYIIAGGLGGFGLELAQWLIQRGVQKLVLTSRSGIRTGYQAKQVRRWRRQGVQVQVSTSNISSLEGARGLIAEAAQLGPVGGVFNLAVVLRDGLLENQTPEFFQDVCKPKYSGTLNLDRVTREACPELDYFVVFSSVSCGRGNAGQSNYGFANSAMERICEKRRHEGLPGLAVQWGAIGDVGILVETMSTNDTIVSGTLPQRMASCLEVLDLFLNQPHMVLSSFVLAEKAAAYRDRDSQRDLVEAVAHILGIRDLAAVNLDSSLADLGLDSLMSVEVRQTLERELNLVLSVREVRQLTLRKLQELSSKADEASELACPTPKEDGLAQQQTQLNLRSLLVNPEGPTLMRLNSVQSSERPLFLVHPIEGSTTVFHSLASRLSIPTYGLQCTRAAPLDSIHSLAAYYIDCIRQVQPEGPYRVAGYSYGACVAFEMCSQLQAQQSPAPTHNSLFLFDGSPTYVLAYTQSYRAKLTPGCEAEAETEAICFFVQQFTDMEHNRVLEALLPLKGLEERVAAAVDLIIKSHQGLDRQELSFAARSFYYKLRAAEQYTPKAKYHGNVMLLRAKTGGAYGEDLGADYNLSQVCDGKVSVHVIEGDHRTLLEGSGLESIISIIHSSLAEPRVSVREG

Row | pIC50 [1] | melting point | SMILES
1 | 7.00 to 9.00 | 102 to 105 °C | COc1c(-c2ccc(CC3(C#N)CCN(C(=O)[C@H]4CCCO4)CC3)cc2)ccc2cccnc12 [Example 91, 4-[4-(8-Methoxyquinolin-7-yl)-benzyl]-1-((R)-tetrahydrofuran-2-carbonyl)-piperidine-4-carbonitrile]
2 | 5.00 to 6.00 | 175 °C | CC(C)C(=O)N1CCC(O)(Cc2ccc(-c3ccc4cnccc4c3)cc2)CC1 [Example 147, 1-[4-Hydroxy-4-(4-isoquinolin-6-yl-benzyl)-piperidin-1-yl]-2-methyl-propan-1-one]
3 | 5.00 to 6.00 | 89 °C | CCC(=O)N1CCC(O)(Cc2ccc(-c3cnc4ccccc4c3)cc2)CC1 [Example 148, 1-(4-hydroxy-4-(4-(quinolin-3-yl)benzyl)piperidin-1-yl)propan-1-one]
4 | 5.00 to 6.00 | 168 °C | CC(C)C(=O)N1CCC(O)(Cc2ccc(-c3cnc4ccccc4c3)cc2)CC1 [Example 149, 1-(4-hydroxy-4-(4-(quinolin-3-yl)benzyl)piperidin-1-yl)-2-methylpropan-1-one]
5 | 6.00 to 7.00 | 171 °C | CCC(=O)N1CCC(O)(Cc2ccc(-c3ccc4cccnc4c3)cc2)CC1 [Example 150, 1-(4-hydroxy-4-(4-(quinolin-7-yl)benzyl)piperidin-1-yl)propan-1-one]
6 | 5.00 to 6.00 | 153 °C | CC(C)C(=O)N1CCC(O)(Cc2ccc(-c3ccc4cccnc4c3)cc2)CC1 [Example 151, 1-(4-hydroxy-4-(4-(quinolin-7-yl)benzyl)piperidin-1-yl)-2-methylpropan-1-one]
7 | 5.00 to 6.00 | 76 °C | CCC(=O)N1CCC(O)(Cc2ccc(-c3ccc4occc4c3)cc2)CC1 [Example 152, 1-(4-(4-(benzofuran-5-yl)benzyl)-4-hydroxypiperidin-1-yl)propan-1-one]
8 | 5.00 to 6.00 | 129 °C | CC(C)C(=O)N1CCC(O)(Cc2ccc(-c3ccc4occc4c3)cc2)CC1 [Example 153, 1-(4-(4-(benzofuran-5-yl)benzyl)-4-hydroxypiperidin-1-yl)-2-methylpropan-1-one]
9 | 5.00 to 6.00 | 100 °C | CCC(=O)N1CCC(O)(Cc2ccc(-c3ccc4[nH]ccc4c3)cc2)CC1 [Example 154, 1-(4-(4-(1H-indol-5-yl)benzyl)-4-hydroxypiperidin-1-yl)propan-1-one]
10 | 5.00 to 6.00 | 176 °C | CC(C)C(=O)N1CCC(O)(Cc2ccc(-c3ccc4[nH]ccc4c3)cc2)CC1 [Example 155, 1-(4-(4-(1H-indol-5-yl)benzyl)-4-hydroxypiperidin-1-yl)-2-methylpropan-1-one]
11 | 5.00 to 6.00 | 174 °C | CCC(=O)N1CCC(O)(Cc2ccc(-c3cc4ccccc4o3)cc2)CC1 [Example 156, 1-(4-(4-(benzofuran-2-yl)benzyl)-4-hydroxypiperidin-1-yl)propan-1-one]
12 | 5.00 to 6.00 | 203 °C | CC(C)C(=O)N1CCC(O)(Cc2ccc(-c3cc4ccccc4o3)cc2)CC1 [Example 157, 1-(4-(4-(benzofuran-2-yl)benzyl)-4-hydroxypiperidin-1-yl)-2-methylpropan-1-one]
13 | 5.00 to 6.00 | 78 °C | CCC(=O)N1CCC(O)(Cc2ccc(-c3cncc4ccccc34)cc2)CC1 [Example 158, 1-(4-hydroxy-4-(4-(isoquinolin-4-yl)benzyl)piperidin-1-yl)propan-1-one]
14 | 5.00 to 6.00 | 196 °C | CC(C)C(=O)N1CCC(O)(Cc2ccc(-c3cncc4ccccc34)cc2)CC1 [Example 159, 1-(4-hydroxy-4-(4-(isoquinolin-4-yl)benzyl)piperidin-1-yl)-2-methylpropan-1-one]
15 | 6.00 to 7.00 | 94 °C | CCC(=O)N1CCC(O)(Cc2ccc(-c3ccc4cnccc4c3)cc2)CC1 [Example 160, 1-(4-hydroxy-4-(4-(isoquinolin-6-yl)benzyl)piperidin-1-yl)propan-1-one]

From US11878966B2, “Substituted 4-benzyl and 4-benzoyl piperidine derivates” (89BIO LTD, priority 2015, dated 2024)
